Laboratory results taken from the NIST ThermoML archive (doi:10.1016/j.fluid.2009.10.009).
Numbers after ± are expanded uncertainties.

Details: Crystal

SMILES | Normal melting temperature (Visual) [°C] | Normal melting temperature (visual observation) [°C]
CCCCCCCCCCO [decan-1-ol] | 7.00 | –
CC(C)CCC[C@@H](C)[C@H]1CC[C@H]2[C@@H]3CC=C4C[C@@H](O)CC[C@]4(C)[C@H]3CC[C@]12C [.DELTA.5-cholesten-3β-ol] | – | 148.00 ± 0.39
